Molecular target: human IDO1 protease (Homo sapiens (Human), UniProt P14902)
Assay: Inhibitory activity against human IDO1 protease (absorbance test method)
Assay type: biochemical
Conditions: IDO1 (His-tag) enzyme, absorbance at 320 nm
Description: 1) Experimental Materials and Apparatus: • IDO1 (His-tag) enzyme (BPS Bioscience) • L-tryptophan (Sigma) • Methylene blue (Sigma) • Catalase originated from the liver of cattle (Sigma) • L-ascorbic acid (Sigma) • Glycerol (Sigma) • Potassium dihydrogen phosphate solution (Sigma) • Tween 20 (Sigma) • Automatic sampling platform Liquid handler (Bravo & Echo) • Microplate Reader SpectraMax M5e (Molecular Devices)
2) Test Method of Compounds: The Compounds are Determined by Absorbance Test Method:
The tested compounds and the reference compounds are dissolved in DMSO to prepare a high concentration of storage solution. The stock solution of reference compound was diluted with DMSO to prepare a 100× solution. In the first column of the working plate, 8 μL above tested compounds and 8 μL 100× reference compound were respectively added as the highest concentration, and then the highest concentrations were subjected to three times dilution to obtain 11 concentrations and prepare 100× solution. 0.5 μL solution was transferred from the above plate to the detection plate. […]. For HPE and ZPE control wells, 0.5 μL 100% DMSO was added.
25 μL 2×IDO1 (His-tag) enzyme solution (containing L-ascorbic acid, methylene blue, and catalase) was added to each well. 25 μL reaction solution without IDO1 (His-tag) enzyme was added into HPE control well. The test plate was centrifugated at 1000 rpm for 1 minute to mix well. Then, the test plate was incubated at room temperature for 30 minutes. 25 μL above 2× substrate (L-tryptophan) solution was added to each well. The test plate was centrifugated at 1000 rpm for 1 minute to mix well. The detection plate was placed on ELISA (SpectraMax M5e), the temperature was set at 25° C., and the absorbance (OD value) was measured at 320 nm every 10 minutes till 60 minutes.
Calculating the increase ratio of absorbance: the slope of the absorbance increase curve from 10 min to 60 min is derived from SpectralMax M5e. The inhibition coefficient of compound was calculated: the inhibition ratio of compound=(the absorbance increase ratio of ZPE control well−the absorbance increase ratio of compound well)/(the absorbance increase ratio of ZPE control well−the absorbance increase ratio of HPE control well)×100. Results was analyzed by Prism 5.0.

Chain of human IDO1 protease (P14902 whole entry): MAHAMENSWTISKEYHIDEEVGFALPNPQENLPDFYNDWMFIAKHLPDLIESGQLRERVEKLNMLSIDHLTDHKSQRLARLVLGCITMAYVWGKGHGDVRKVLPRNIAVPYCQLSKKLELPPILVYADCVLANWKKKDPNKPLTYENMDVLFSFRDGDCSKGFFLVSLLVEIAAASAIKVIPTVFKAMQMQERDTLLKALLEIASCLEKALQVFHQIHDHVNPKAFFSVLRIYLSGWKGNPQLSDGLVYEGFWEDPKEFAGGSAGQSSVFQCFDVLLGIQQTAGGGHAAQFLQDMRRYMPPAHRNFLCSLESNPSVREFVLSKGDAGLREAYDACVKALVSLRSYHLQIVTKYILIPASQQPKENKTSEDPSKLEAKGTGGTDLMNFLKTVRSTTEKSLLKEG

| SMILES | IC50 |
| --- | --- |
| NS(=O)(=O)N1CCC(CNc2nonc2/C(=N/O)Nc2ccc(F)c(Br)c2)CC1 [Compound 18, N-(3-bromo-4-fluorophenyl)-N′-hydroxyl-4-(((1-sulfamoylazacyclohexane-4-yl)methyl)amino)-1,2,5-oxadiazole-3-formamidine] | 0.114 µM |
| O=S(=O)(C1CC1)N1CC(CNc2nonc2/C(=N/O)Nc2ccc(F)c(Br)c2)C1 [Compound 86, (Z)—N-(3-Bromo-4-fluorophenyl)-4-(((1-(cyclopropylsulfonyl)azido-3-yl)methyl)amino)-N′-hydroxyl-1,2,5-oxadiazol-3-carboxyoximide] | 0.167 µM |
| CC(C)(C)OC(=O)N1CC(CNc2nonc2/C(=N/O)Nc2ccc(F)c(Br)c2)C1 [Compound 3, t-Butyl 3-(((4-(N-(3-bromo-4-fluorophenyl)-N′-hydroxylformamidinyl)-1,2,5-oxadiazole-3-yl)amino)methyl)azetidin-1-formate] | 0.43 µM |
| CS(=O)(=O)N1CC(CNc2nonc2C(=NO)Nc2ccc(F)c(Br)c2)C1 [Compound 85] | 0.115 µM |
| NS(=O)(=O)N1CC(O)(CNc2nonc2C(=NO)Nc2ccc(F)c(Br)c2)C1 [Compound 92] | 0.064 µM |
| NS(=O)(=O)N1CCC(O)(CNc2nonc2C(=NO)Nc2ccc(F)c(Br)c2)C1 (centres unmarked) [Compound 151] | 0.101 µM |
| O=S(=O)(C1CC1)N1CCC(CNc2nonc2/C(=N/O)Nc2ccc(F)c(Br)c2)C1 (centres unmarked) [Compound 21, N-(3-bromo-4-fluorophenyl)-N′-hydroxyl-4-(((1-cyclopropylsulfonylazacyclopentan-3-yl)methyl)amino)-1,2,5-oxadiazole-3-formamidine] | 0.141 µM |
| CN(C)C(=O)C(=O)N1CC(CNc2nonc2C(=NO)Nc2ccc(F)c(Br)c2)C1 [Compound 89] | 0.183 µM |
| CN(C)S(=O)(=O)N1CCC(CNc2nonc2/C(=N/O)Nc2ccc(F)c(Br)c2)C1 (centres unmarked) [Compound 23, (Z)—N-(3-bromo-4-fluorophenyl)-4-(((1-(N,N-methylsulfonyl)pyrrolidinyl-3-yl)methyl)amino)-N′-hydroxyl-1,2,5-oxadiazol-3-carboxyoximide] | 0.183 µM |
| NS(=O)(=O)N1CCCCC1CNc1nonc1/C(=N/O)Nc1ccc(F)c(Br)c1 (centres unmarked) [Compound 14, N-(3-bromo-4-fluorophenyl)-N′-hydroxyl-4-(((1-sulfamoylazacyclohexane-2-yl)methyl)amino)-1,2,5-oxadiazole-3-formamidine] | 0.279 µM |
| NS(=O)(=O)N1CCCC1CNc1nonc1/C(=N/O)Nc1ccc(F)c(Br)c1 (centres unmarked) [Compound 13, N-(3-Bromo-4-fluorophenyl)-N′-hydroxyl-4-(((1-sulfamoylazacyclopentan-2-yl)methyl)amino)-1,2,5-oxadiazole-3-formamidine] | 0.214 µM |
| O/N=C(\Nc1ccc(F)c(Br)c1)c1nonc1NCC1CCNC1 (centres unmarked) [Compound 6, N-(3-Bromo-4-fluorophenyl)-N′-hydroxyl-4-((azacyclopentan-3-ylmethyl)amino)-1,2,5-oxadiazole-3-formamidine] | 0.088 µM |
| NS(=O)(=O)N1CCCC(CNc2nonc2/C(=N/O)Nc2ccc(F)c(Br)c2)C1 (centres unmarked) [Compound 10, N-(3-bromo-4-fluorophenyl)-N′-hydroxyl-4-(((1-sulfamoylpiperidin-3-yl)methyl)amino)-1,2,5-oxadiazole-3-formamidine] | 0.254 µM |
| NS(=O)(=O)N1CCOC(CNc2nonc2/C(=N/O)Nc2ccc(F)c(Br)c2)C1 (centres unmarked) [Compound 11, N-(3-bromo-4-fluorophenyl)-N′-hydroxyl-4-(((4-sulfamoylmorpholin-2-yl)methyl)amino)-1,2,5-oxadiazole-3-formamidine] | 0.206 µM |
| NS(=O)(=O)N1CCC(COc2nonc2/C(=N/O)Nc2ccc(F)c(Br)c2)C1 (centres unmarked) [Compound 27, (Z)—N-(3-Bromo-4-fluorophenyl)-N′-hydroxyl-4-((1-sulfamoylpyrrolidin-3-yl)methoxyl)-1,2,5-oxadiazol-3-formamidine] | 0.628 µM |
| NS(=O)(=O)N1CCCC1CCNc1nonc1/C(=N/O)Nc1ccc(F)c(Br)c1 (centres unmarked) [Compound 16, N-(3-bromo-4-fluorophenyl)-N′-hydroxyl-4-((2-(1-sulfamoylazacyclopentan-2-yl)ethyl)amino)-1,2,5-oxadiazole-3-formamidine] | 0.151 µM |
| NS(=O)(=O)N1CCC(CNc2nonc2/C(=N/O)Nc2ccc(F)c(Br)c2)C1 (centres unmarked) [Compound 7, N-(3-bromo-4-fluorophenyl)-N′-hydroxyl-4-(((1-sulfamoylpyrrolidin-3-yl)methyl)amino)-1,2,5-oxadiazole-3-formamidine] | 0.059 µM |
| CS(=O)(=O)N1CCC(CNc2nonc2/C(=N/O)Nc2ccc(F)c(Br)c2)C1 (centres unmarked) [Compound 20, N-(3-bromo-4-fluorophenyl)-N′-hydroxyl-4-(((1-methylsulfonylazacyclopentan-3-yl)methyl)amino)-1,2,5-oxadiazole-3-formamidine] | 0.079 µM |
| NS(=O)(=O)N1CCC(CCNc2nonc2/C(=N/O)Nc2ccc(F)c(Br)c2)CC1 [Compound 19, N-(3-bromo-4-fluorophenyl)-N′-hydroxyl-4-((2-(1-sulfamoylazacyclohexane-4-yl)ethyl)amino)-1,2,5-oxadiazole-3-formamidine] | 0.119 µM |
| O/N=C(\Nc1ccc(F)c(Br)c1)c1nonc1NCC1CNC1 [Compound 2, 4-((Azetidin-3-ylmethyl)amino)-N-(3-bromo-4-fluorophenyl)-N′-hydroxyl-1,2,5-oxadiazole-3-formamidine] | 0.182 µM |
| NS(=O)(=O)N1CCC1CNc1nonc1/C(=N/O)Nc1ccc(F)c(Br)c1 (centres unmarked) [Compound 12, N-(3-Bromo-4-fluorophenyl)-N′-hydroxyl-4-(((1-sulfamoylazetidine-2-yl)methyl)amino)-1,2,5-oxadiazole-3-formamidine] | 0.133 µM |
| CC(C)(C)OC(=O)N1CCC(CNc2nonc2/C(=N/O)Nc2ccc(F)c(Br)c2)C1 (centres unmarked) [Compound 5] | 0.276 µM |
| CN(C)S(=O)(=O)N1CC(CNc2nonc2C(=NO)Nc2ccc(F)c(Br)c2)C1 [Compound 81] | 0.142 µM |
